In patent US8309545B2, “Benzofuran potassium channel blockers and uses thereof” (Bionomics Limited, priority 2006, dated 2012):

Target: T1, human Kv1.3 ion channel (Homo sapiens, UniProt P22001)
T1 construct: Human Jurkat cells (which endogenously express hKv1.3) were used in place of rat L929 cells; endogenous in cells; host or cells: Human Jurkat cells
Assay: Inhibition of Kv1.3 currents, planar patch clamp in Jurkat cells
Format: cell-based
Conditions: Human Jurkat cells (endogenous hKv1.3), averaged dose response data from 3 or more cells
Description: Potency of compounds to inhibit the human Kv1.3 ion channel were determined as follows:
EC50 values for inhibition of Kv1.3 currents were determined by the method according to Schmitz et al (2005) Molecular Pharmacology 68, 1254-1270 with the following differences: • 1. Human Jurkat cells (which endogenously express hKv1.3) were used in place of rat L929 cells. • 2. All electrophysiology was performed using planar patch clamp (Port-A-Patch, Nanion Technologies Gmbh, Munich) in contrast to conventional patch clamp. • 3. EC50 values shown were determined from averaged dose response data obtained from 3 or more cells.

T1 sequence (P22001 whole entry): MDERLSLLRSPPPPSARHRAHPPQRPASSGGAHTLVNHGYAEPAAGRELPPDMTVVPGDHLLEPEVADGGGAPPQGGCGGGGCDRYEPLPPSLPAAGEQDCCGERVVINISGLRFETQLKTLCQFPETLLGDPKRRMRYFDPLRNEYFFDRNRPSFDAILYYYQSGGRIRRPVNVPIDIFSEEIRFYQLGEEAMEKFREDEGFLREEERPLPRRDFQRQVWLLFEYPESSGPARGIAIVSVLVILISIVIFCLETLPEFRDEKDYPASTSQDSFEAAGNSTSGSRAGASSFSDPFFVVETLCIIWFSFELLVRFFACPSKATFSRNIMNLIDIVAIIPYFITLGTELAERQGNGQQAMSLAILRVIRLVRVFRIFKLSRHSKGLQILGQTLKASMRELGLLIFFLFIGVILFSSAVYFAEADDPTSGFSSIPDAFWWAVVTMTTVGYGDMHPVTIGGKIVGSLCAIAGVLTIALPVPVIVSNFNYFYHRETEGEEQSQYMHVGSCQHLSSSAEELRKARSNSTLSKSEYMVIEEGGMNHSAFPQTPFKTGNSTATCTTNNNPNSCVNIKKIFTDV

SMILES	EC50 [nM]
CC(=O)c1c(OCCN2CCOCC2)c(OCC[C@@H](C)c2ccccc2)c2occc2c1C [Example 51, 1-[4-Methyl-6-(2-morpholin-4-yl-ethoxy)-7-(3-phenyl-butoxy)-benzofuran-5-yl]-ethanone]	18
CC(=O)c1c(OCCNC2CCCC2)c(OCCC(C)c2ccccc2)c2occc2c1C (stereo not drawn) [Example 53, 1-[6-(2-Cyclopentylamino-ethoxy)-4-methyl-7-(3-phenyl-butoxy)-benzofuran-5-yl]-ethanone]	23
CC(=O)c1c(OCCCC#N)c(OCCCc2ccccc2)c2occc2c1C [Example 54a, 5-Acetyl-6-(3-cyanopropoxy)-4-methyl-7-(3-phenylpropoxy)benzofuran]	160
CC(=O)c1c(OCCc2nnn[nH]2)c(OCCCc2ccccc2)c2occc2c1C [Example 55, 5-Acetyl-6-(3-(1H-tetrazol-5-yl)-ethoxy)-4-methyl-7-(3-phenylpropoxy)benzofuran]	6600
CC(=O)c1c(OCCN2CCOCC2)c(OC(C)CCc2ccccc2)c2occc2c1C (stereo not drawn) [Example 57b, 1-[4-Methyl-7-(1-RS-methyl-3-phenyl-propoxy)-6-(2-morpholin-4-yl-ethoxy)-benzofuran-5-yl]-ethanone]	159
CC(=O)c1c(OCCN2CCOCC2)c(OCC#Cc2ccccc2)c2occc2c1C [Example 60c, 1-[4-Methyl-6-(2-morpholin-4-yl-ethoxy)-7-(3-phenyl-prop-2-ynyloxy)-benzofuran-5-yl]-ethanone]	331
CC(=O)c1c(OCCN2CCOCC2)c(OC[C@H]2O[C@@H]2c2ccccc2)c2occc2c1C [Example 63, 1-[4-Methyl-6-(2-morpholin-4-yl-ethoxy)-7-(2R,3R-3-phenyl-oxiranylmethoxy)-benzofuran-5-yl]-ethanone]	600
COc1c(C(C)=O)c(O)c(OCCNc2ccccc2)c2occc12 [Example 64c, 1-[6-Hydroxy-4-methoxy-7-(2-phenylamino-ethoxy)-benzofuran-5-yl]-ethanone]	340
CC(=O)c1c(C)c2c(c(OCCC(C)c3ccc(F)cc3)c1OCCNC1CCCC1)OCC2 (stereo not drawn) [Example 67, 1-{6-(2-Cyclopentylamino-ethoxy)-7-[3-RS-(4-fluorophenyl)-butoxy]-4-methyl-2,3-dihydro-benzofuran-5-yl}-ethanone]	8

More lines, in order of falling EC50, values ahead:

EC50 [nM]	SMILES
1600	CC(=O)c1c(OCCCc2nnn[nH]2)c(OCCCc2ccccc2)c2occc2c1C [Example 54b, 5-Acetyl-6-(3-(1H-tetrazol-5-yl)-propoxy)-4-methyl-7-(3-phenylpropoxy)benzofuran]
362	CC(=O)c1c(OCCN2CCOCC2)c(OCC(C)(C)Cc2ccccc2)c2occc2c1C [Example 56b, 5-Acetyl-7-(2,2-dimethyl-3-phenylpropoxy)-4-methyl-6-(2-morpholinoethoxy)benzofuran]
221	CC(=O)c1c(OCCN2CCOCC2)c(OC/C=C/c2ccccc2)c2occc2c1C [Example 61, 1-[4-Methyl-6-(2-morpholin-4-yl-ethoxy)-7-(E-3-phenyl-allyloxy)-benzofuran-5-yl]-ethanone]
200	CC(=O)c1c(C)c2c(c(OCCCc3ccccc3)c1OCCN1CCOCC1)OCC2 [Example 65, 5-Acetyl-6-(2-morpholinoethoxy)-4-methyl-7-(3-phenylpropoxy)-2,3-dihydrobenzofuran]
100	CC(=O)c1c(OCCN2CCOCC2)c(OC[C@H]2C[C@@H]2c2ccccc2)c2occc2c1C [Example 58c, 1-[4-Methyl-6-(2-morpholin-4-yl-ethoxy)-7-(1S,2S-2-phenyl-cyclopropylmethoxy)-benzofuran-5-yl]-ethanone]
20	CC(=O)c1c(C)c2c(c(CCCCc3ccccc3)c1OCCN1CCOCC1)OCC2 [Example 68, 1-[4-Methyl-6-(2-morpholin-4-yl-ethoxy)-7-(4-phenyl-butyl)-2,3-dihydro-benzofuran-5-yl]-ethanone]
